The structures appear in SMILES notation. A value given as a limit tells only on which side of the number the result lay.

The target in this assay is USP19 (Homo sapiens (Human), UniProt O94966). Kind of assay: USP19 activity assay (fluorescence polarisation, Ubiquitin-Lys-TAMRA substrate). The format is biochemical. To be noted: full-length USP19 2.5 nM, 30 min pre-incubation, Ub substrate 500 nM; average of at least two duplicate experiments.
Chain of USP19 (O94966 whole entry): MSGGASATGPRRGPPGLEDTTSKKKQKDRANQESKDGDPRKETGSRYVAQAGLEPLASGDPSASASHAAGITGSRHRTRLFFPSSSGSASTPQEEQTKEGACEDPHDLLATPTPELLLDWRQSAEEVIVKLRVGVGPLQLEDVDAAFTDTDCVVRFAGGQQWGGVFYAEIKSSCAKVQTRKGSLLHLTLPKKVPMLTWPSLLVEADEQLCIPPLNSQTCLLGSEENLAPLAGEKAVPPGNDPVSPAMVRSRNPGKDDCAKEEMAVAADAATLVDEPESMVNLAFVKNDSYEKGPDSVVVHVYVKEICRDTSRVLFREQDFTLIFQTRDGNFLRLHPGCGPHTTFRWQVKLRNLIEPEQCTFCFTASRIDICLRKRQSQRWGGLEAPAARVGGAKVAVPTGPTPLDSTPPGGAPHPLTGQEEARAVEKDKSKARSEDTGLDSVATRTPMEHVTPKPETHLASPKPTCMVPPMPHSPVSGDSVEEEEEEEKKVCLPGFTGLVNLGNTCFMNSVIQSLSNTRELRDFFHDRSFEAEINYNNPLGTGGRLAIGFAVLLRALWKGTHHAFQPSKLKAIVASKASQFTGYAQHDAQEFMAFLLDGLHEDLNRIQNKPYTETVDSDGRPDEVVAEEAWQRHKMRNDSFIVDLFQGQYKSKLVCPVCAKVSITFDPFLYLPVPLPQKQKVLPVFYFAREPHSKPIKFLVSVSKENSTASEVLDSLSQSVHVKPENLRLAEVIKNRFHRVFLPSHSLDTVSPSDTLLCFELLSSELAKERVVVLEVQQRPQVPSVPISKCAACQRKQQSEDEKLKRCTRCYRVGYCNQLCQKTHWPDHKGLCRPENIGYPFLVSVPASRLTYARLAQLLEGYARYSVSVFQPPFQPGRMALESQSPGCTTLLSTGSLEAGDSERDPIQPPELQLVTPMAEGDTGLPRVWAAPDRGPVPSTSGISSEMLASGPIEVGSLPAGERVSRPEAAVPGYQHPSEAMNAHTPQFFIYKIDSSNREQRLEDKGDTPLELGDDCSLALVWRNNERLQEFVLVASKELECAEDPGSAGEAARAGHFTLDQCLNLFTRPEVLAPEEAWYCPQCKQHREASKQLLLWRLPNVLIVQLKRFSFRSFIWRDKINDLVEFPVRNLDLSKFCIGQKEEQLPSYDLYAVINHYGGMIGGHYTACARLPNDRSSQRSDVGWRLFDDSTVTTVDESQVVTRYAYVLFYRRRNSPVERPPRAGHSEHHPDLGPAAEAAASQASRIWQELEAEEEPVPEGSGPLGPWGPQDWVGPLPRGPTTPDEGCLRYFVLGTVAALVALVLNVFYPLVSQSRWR
Consider `C[C@H](CC(=O)N1CCC(O)(Cn2cnc(-c3ccccc3CO)cc2=O)CC1)c1ccccc1` [Example 74, (R)-3-((4-Hydroxy-1-(3-phenylbutanoyl)piperidin-4-yl)methyl)-6-(2-(hydroxymethyl)phenyl)pyrimidin-4(3H)-one], for which the IC50 is 50 to 250 µM.

With `CN(C)C(=O)c1cn(CC2(O)CCN(C(=O)C3(CC(F)F)CC3)CC23CCCC3)c(=O)cc1-c1ccccc1` (stereo not shown) [Example 178, 1-((7-(1-(2,2-Difluoroethyl)cyclopropane-1-carbonyl)-10-hydroxy-7-azaspiro[4.5]decan-10-yl)methyl)-N,N-dimethyl-6-oxo-4-phenyl-1,6-dihydropyridine-3-carboxamide], the IC50 lay within 50 to 250 µM.

Regarding `Cc1nc(-c2ccccc2)cc(=O)n1CC1(O)CCN(C(=O)C[C@@H](C)c2ccccc2)CC1` [Example 18, (R)-3-((4-Hydroxy-1-(3-phenylbutanoyl)piperidin-4-yl)methyl)-2-methyl-6-phenylpyrimidin-4(3H)-one], the IC50 lay within 5 to 50 µM.

In the case of `C[C@H](CC1CCCCC1)C(=O)N1CCC(O)(Cn2cc(C(=O)O)c(-c3ccccc3)cc2=O)C(C)(C)C1` (stereo partly drawn) [Example 241, 1-((1-((R)-3-Cyclohexyl-2-methylpropanoyl)-4-hydroxy-3,3-dimethylpiperidin-4-yl)methyl)-6-oxo-4-phenyl-1,6-dihydropyridine-3-carboxylic acid], the concentration for half-maximal inhibition (IC50) was 0.5 to 5 µM.

`C[C@H](CC1CCCCC1)C(=O)N1CCC(O)(Cn2cc(C(=O)N(C)C)c(-c3ccccc3CN)cc2=O)C2(CCCC2)C1` (stereo partly drawn) [Example 161, 4-(2-(Aminomethyl)phenyl)-1-((7-((R)-3-cyclohexyl-2-methylpropanoyl)-10-hydroxy-7-azaspiro[4.5]decan-10-yl)methyl)-N,N-dimethyl-6-oxo-1,6-dihydropyridine-3-carboxamide]: the IC50 was in the range of 5 to 50 µM.

Turning to `C[C@H](CC(=O)N1CCC(O)(Cn2cc(C(=O)N(C)Cc3ccccc3)c(-c3ccccc3)cc2=O)CC1)c1ccccc1` [Example 105, (R)—N-Benzyl-1-((4-hydroxy-1-(3-phenylbutanoyl)piperidin-4-yl)methyl)-N-methyl-6-oxo-4-phenyl-1,6-dihydropyridine-3-carboxamide], the IC50 fell in the range of 5 to 50 µM.

With `C[C@H](CC1CCCCC1)C(=O)N1CC[C@@](O)(Cn2cc(C(=O)N3CCN(C)CC3)c(-c3ccccc3)cc2=O)C2(CCCC2)C1` [Example 240, 1-(((S)-7-((R)-3-Cyclohexyl-2-methylpropanoyl)-10-hydroxy-7-azaspiro[4.5]decan-10-yl)methyl)-5-(4-methylpiperazine-1-carbonyl)-4-phenylpyridin-2(1H)-one], the IC50 is under 0.5 µM.

For `CN(C)C(=O)c1cn(CC2(O)CCN(C(=O)CCC(F)(F)F)CC23CCCC3)c(=O)cc1-c1ccccc1` (stereo not shown) [Example 172, 1-((10-Hydroxy-7-(4,4,4-trifluorobutanoyl)-7-azaspiro[4.5]decan-10-yl)methyl)-N,N-dimethyl-6-oxo-4-phenyl-1,6-dihydropyridine-3-carboxamide], the IC50 was 5 to 50 µM.

For the molecule `CN(C)C(=O)c1cn(C[C@]2(O)CCN(C(=O)[C@H](CO)CC(F)(F)F)CC23CCCC3)c(=O)cc1-c1ccccc1` [Example 247, 1-(((S)-10-Hydroxy-7-((S)-4,4,4-trifluoro-2-(hydroxymethyl)butanoyl)-7-azaspiro[4.5]decan-10-yl)methyl)-N,N-dimethyl-6-oxo-4-phenyl-1,6-dihydropyridine-3-carboxamide], the IC50 is under 0.5 µM.

As to `CN(C)C(=O)c1cn(C[C@]2(O)CCN(C(=O)[C@H](CCO)CC3CCCCC3)CC2(C)C)c(=O)cc1-c1ccccc1` [Example 164, 1-(((S)-1-((S)-2-(Cyclohexylmethyl)-4-hydroxybutanoyl)-4-hydroxy-3,3-dimethylpiperidin-4-yl)methyl)-N,N-dimethyl-6-oxo-4-phenyl-1,6-dihydropyridine-3-carboxamide], the IC50 was under 0.5 µM.

On to `O=C(C(F)CC1CCCCC1)N1CCC(O)(Cn2cnc(-c3ccccc3F)cc2=O)CC1` (racemic) [Example 49, (R,S)-3-((1-(3-Cyclohexyl-2-fluoropropanoyl)-4-hydroxypiperidin-4-yl)methyl)-6-(2-fluorophenyl)pyrimidin-4(3H)-one], for which the IC50 lay within 50 to 250 µM.

`C[C@H](CC1CCCCC1)C(=O)N1CCC(O)(Cn2cc(C(=O)N(C)C)c(-c3ccccc3)cc2=O)C2(CCCCC2)C1` (stereo partly drawn) [Example 237, 1-((2-((R)-3-Cyclohexyl-2-methylpropanoyl)-5-hydroxy-2-azaspiro[5.5]undecan-5-yl)methyl)-N,N-dimethyl-6-oxo-4-phenyl-1,6-dihydropyridine-3-carboxamide]: the IC50 is under 0.5 µM.

For the molecule `CN(C)C(=O)c1cn(C[C@]2(O)CCN(C(=O)[C@H](CO)CC3CCC3)CC2(C)C)c(=O)cc1-c1ccccc1` [Example 166, 1-(((S)-1-((S)-3-Cyclobutyl-2-(hydroxymethyl)propanoyl)-4-hydroxy-3,3-dimethylpiperidin-4-yl)methyl)-N,N-dimethyl-6-oxo-4-phenyl-1,6-dihydropyridine-3-carboxamide], the half-inhibitory concentration (IC50) was under 0.5 µM.

Take `CC(CC(C)(C)C)C(=O)N1CCC(O)(Cn2cnc(-c3ccccc3F)cc2=O)C(C)(C)C1` (stereo not shown) [Example 142, 6-(2-Fluorophenyl)-3-((4-hydroxy-3,3-dimethyl-1-(2,4,4-trimethylpentanoyl)piperidin-4-yl)methyl)pyrimidin-4(3H)-one]: the IC50 lay within 50 to 250 µM.

For `C[C@H](CC1CCCCC1)C(=O)N1CC[C@@](O)(Cn2cc(C(=O)O)c(-c3ccccc3)cc2=O)C2(CCCC2)C1` [Example 253, 1-(((S)-7-((R)-3-Cyclohexyl-2-methylpropanoyl)-10-hydroxy-7-azaspiro[4.5]decan-10-yl)methyl)-6-oxo-4-phenyl-1,6-dihydropyridine-3-carboxylic acid], the IC50 was under 0.5 µM.

As to `C[C@H](CC1CCC1)C(=O)N1CC[C@@](O)(Cn2cc(C(=O)N(C)C)c(C3CC3)cc2=O)C2(CCCC2)C1` [Example 230, 1-(((S)-7-((R)-3-Cyclobutyl-2-methylpropanoyl)-10-hydroxy-7-azaspiro[4.5]decan-10-yl)methyl)-4-cyclopropyl-N,N-dimethyl-6-oxo-1,6-dihydropyridine-3-carboxamide], the IC50 lay in the range of 0.5 to 5 µM.

Take `CC(C)CC(C)C(=O)N1CCC(O)(Cn2cc(C(=O)N(C)C)c(-c3ccccc3)cc2=O)C2(CCCC2)C1` (stereo not shown) [Example 197]: the IC50 was under 0.5 µM.

In the case of `C[C@H](CC1CCCCC1)C(=O)N1CCC(O)(Cn2cc(C(=O)N(C)C)c(-c3ccc(CO)cc3)cc2=O)C2(CCCC2)C1` (stereo partly drawn) [Example 162, 1-((7-((R)-3-Cyclohexyl-2-methylpropanoyl)-10-hydroxy-7-azaspiro[4.5]decan-10-yl)methyl)-4-(4-(hydroxymethyl)phenyl)-N,N-dimethyl-6-oxo-1,6-dihydropyridine-3-carboxamide], the IC50 was under 0.5 µM.

As to `C[C@H](CC(F)(F)F)C(=O)N1CC[C@@](O)(Cn2cc(C(=O)N3CCNCC3)c(-c3ccccc3F)cc2=O)C2(CCCC2)C1` [Example 225, 4-(2-Fluorophenyl)-1-(((S)-10-hydroxy-7-((R)-4,4,4-trifluoro-2-methylbutanoyl)-7-azaspiro[4.5]decan-10-yl)methyl)-5-(piperazine-1-carbonyl)pyridin-2(1H)-one], the IC50 was 0.5 to 5 µM.
